Reference: patent US11731933B2, “Device and method for the desalination of water by means of thermal deionisation and liquid-phase ion extraction liquid” (ADIONICS, priority 2015, dated 2023)
In brackets after ≈: the same amount, converted by molar mass. Several values for one entry are separate records, joined by “and”; a condition that tells them apart may be missing. Equal entries are not always repeated. Where two headings read alike, the source gives them in different places.

Experiments:
[1] = Solubility in water (UV-visible spectrometry); assay type: physicochemical; details: for solubility: water
Description: The hydrophobicity or solubility of a compound can be measured by standard methods and in particular by UV-visible spectrometry.

pKa in water at 25° C. = assay type: physicochemical
Protocol: The pKa (or acid constant) is defined as pKa=−log10(Ka), where Ka is the acid dissociation constant which is measured in a standard manner for such pKa. The recommended standard measurement method for high, basic pKa is preferably that described by Popov and al, IUPAC—Guidelines for NMR measurements for determination of high and low pKa Pure Apl. Chem., Vol. 78, No. 3, pp. 663-675, 2006.

[2] = NaCl extraction from 0.2M NaCl water by ASM/CEM composition, ion chromatography of treated water; details: ASM: 3TFMPhOH; CEM 0.2M; NaCl 0.2M water
Protocol: To 3 mL of 3-(trifluoromethyl)phenol, was added 217 mg of Dibenzo-18-crown-6 in order to obtain a formulation with 0.2 mole/L of DB18C6. This sealed formulation was then orbitally stirred at 500 rpm overnight after 1 mL of distilled water was added twice to allow water saturation of the whole.
The next morning, an aqueous 0.2 mol/L NaCl solution was prepared from twice distilled water, while the formulation that was stirred overnight was allowed to stand for decantation. A clear decantation of the two colorless phases is obtained in a few minutes. 3 mL of the organic extraction solution is then removed and transferred to a flask containing 3 mL of this salt water containing 0.2 M NaCl, then the flask is sealed and orbitally stirred (usually 500 rpm), for 3 hours and at room temperature. It is verified that droplets of the order of 1-2 mm are present in quantity at the selected stirring speed (400 to 900 rpm).
After stirring for 2 hours, stirring is stopped and the whole is left to stand for decantation for at least 10 minutes until the two phases are completely separated. The upper aqueous phase is then removed and then stirred and diluted for analysis of its salinity by a Metrohm Ion Chromatography Incorporating a suitable cation analysis column and a suitable anion analysis column. Similarly, the initial aqueous solution of 0.2M NaCl is also analyzed by this ion chromatography equipment to determine its relative concentration of sodium and chlorides. […]

[3] = methanol, published complexing constants; cited from earlier work
[4] = methanol; cited from earlier work
Log P = assay type: physicochemical; details: for logP: Exp
[5] = NaCl extraction from 0.4M NaCl water by ASM + Calix[4]Est in chloroform (Example 11)
Protocol: The extraction composition is obtained by solubilizing an amount of 4-tert-butyl Calix[4]arene tetraethyl Ester (CAS No. 97600-39-0) and ASM in chloroform CHCl3 to obtain a final concentration after solubilization of the CEM and ASM of 0.3 mol/L for Calix[4]Est and of 0.3 mol/L for ASM, respectively. These sealed formulations were then orbitally stirred at 500 rpm for 2 hours after adding an equivalent volume of twice distilled water to allow water saturation of the entire formulation and control of pH output (pH=7). The extraction composition is then put to stand to settle. All the compositions tested are stable and rapidly decanted (a few minutes at the most).
A 0.4 mol/L NaCl aqueous solution was prepared from twice distilled water.
The organic extraction composition is then slightly heated to promote solubilization of the compounds by hot air gun (temperature of about 50 to 60° C.) for a few seconds (10 to 30 seconds) until a clear solution is obtained.
3 mL of the organic extraction composition is then removed from the lower phase of the settled two-phase mixture and transferred to a vial containing 3 mL of salt water at 0.4 M NaCl and then the flask is sealed and orbitally stirred (at 500 revolutions per minute), for 2 hours at room temperature (RT), that is to say between 20 and 25° C. In the case of extraction at 60° C., magnetic stirring (at 500 revolutions per minute), for 2 hours, is carried out with indirect heating in a metal mold on a heating plate. It is verified that droplets of the order of 1-2 mm are present during these agitations in order to be certain to achieve equilibrium in the NaCl distribution between the two liquid phases at the end of stirring. The appearance of the organic and aqueous phases is clear and colorless or slightly cloudy.
After stirring for 2 hours, stirring is stopped and the solution is put to stand to settle within 10 minutes, at least until the two phases have completely separated off, at the temperature of the test. The upper aqueous phase is then removed and then stirred and diluted for analysis of its salinity by a Metrohm Ion Chromatograph incorporating a suitable cation analysis column and a suitable anion analysis column. Similarly, the initial aqueous solution of NaCl at 0.4M is also analyzed by this ion chromatograph to determine its relative molar concentration in sodium and in chlorides. AN extractions and analyzes were duplicated.

[6] = NaCl extraction from 0.2M NaCl water by ASM/CEM composition, ion chromatography of treated water; details: dichloromethane instead of 3TFMPhOH
[7] = RT, CEM 0.3 Mol/L, ASM 0.3 Mol/L in CHCl3, 0.4 M NaCl

pKa (pKa in water at 25° C.) | Solubility in water [1] [µM] | SMILES | Extraction rate at 23° C., Cl− [2] [%] | Extraction rate at 23° C., Na+ [2] [%] | Extraction rate at 23° C., mean NaCl [2] [%] | Log K(Na+, MeOH, 25° C.) [3] | Log K(K+, MeOH, 25° C.) [4] | other results
– | 36000 (≈ 13400 µg/mL) | C1CCC2OCCOCCOC3CCCCC3OCCOCCOC2C1 (stereo not shown) [DC18C6, Dicyclohexano-1,4,7,10,13,16-hexaoxacyclooctadecane] | 30.3 | 29.1 | 29.7 | 4.27 | 5.97 | –
– | – | c1ccc2c(c1)OCCOCCOCCOCCO2 [B15C5, Benzo[b]-1,4,7,10,13-pentaoxa-cyclopentadecane] | 12.5 | 17.2 | 14.8 | 3.03 | 3.93 | logP (Log P): 0.91
– | 2500 (≈ 1180 µg/mL) | c1ccc2c(c1)OCCN1CCOCCOCCN(CCO2)CCOc2ccccc2OCC1 [DB[2.2.2], 5,6,14,15-DiBenzo-4,7,13,16,21,24-hexaoxa-1,10-diazabicyclo[8.8.8] hexacosane] | – | – | – | 7.60 | 8.74 | –
14.7 | 32000 (≈ 5640 µg/mL) | OCc1cccc(C(F)(F)F)c1 [ASM 2, [3-(Trifluoromethyl)phenyl]methanol] | – | – | – | – | – | –
8.68 | – | Oc1cccc(C(F)(F)F)c1 [ASM 1, 3-(Trifluoromethyl)phenol] | – | – | – | – | – | Log P (Log P): 2.95
14.7 | – | OCc1cc(C(F)(F)F)cc(C(F)(F)F)c1 [ASM 3, [3,5-Bis(Trifluoromethyl)phenyl]methanol] | – | – | – | – | – | solubility ([1]; read-out: Solubility in water): 2290 µM (≈ 559 µg/mL); NaCl - 20° C. % ext (average) ([5]; 20° C., average molar extraction): 7.9%; Mol % Cl- extracted from the water to be treated ([5]; 60° C., CEM 0.3 Mol/L, ASM 0.3 Mol/L in CHCl3, 0.4 M NaCl): not detected; NaCl - 60° C. % ext (average) ([5]; 60° C., average molar extraction): 0.0%; Mol % Cl- extracted from the water to be treated [5, 7]: 8.2% and 8.8%; Mol % Na+ extracted from the water to be treated [5, 7]: 6.8% and 7.6%; Δ % ext ([5]; difference 20° C. minus 60° C.): 7.9%
– | 3000 (≈ 1450 µg/mL) | C1CCC2OCCN3CCOCCOCCN(CCOC2C1)CCOC1CCCCC1OCC3 (stereo not shown) [DC[2.2.2], 5,6,14,15-DiCyclohexano-4,7,13,16,21,24-hexaoxa-1,10-diazabicyclo[8.8.8] hexacosane] | – | – | – | 6.02 | 6.92 | –
– | – | c1ccc2c(c1)OCCOCCOCCOc1ccccc1OCCOCCOCCO2 [DB24C8, 6,7,9,10,12,13,20,21,23,24,26,27-Dodecahydrodibenzo[b,n][1,4,7,10,13,16,19,22] octaoxacyclotetracosine] | 37.1 | 35.5 | 36.3 | 2.25 and 2.35 | 3.61 | logP (Log P): 2.11
– | 1100 (≈ 396 µg/mL) | c1ccc2c(c1)OCCOCCOc1ccccc1OCCOCCO2 [DB18C6, Dibenzo[b,k]-1,4,7,10,13,16-hexaoxacyclooctadecane] | 38.8 | 30.8 | 34.6 | 4.36-4.49 | 5.12 | logP (Log P): 2.2; NaCl extraction with the ASM replaced by dichloromethane [6]: ≤ 1.6%
– | – | C1CCC2OCCOCCOCCOCCOC2C1 (stereo not shown) [C15C5, Perhydrobenzo[b]-1,4,7,10,′3-pentaoxacyclopentadecane] | 30.7 | 21.0 | 26.0 | 3.71-3.9 | 3.96 | –
13.6 | – | OCc1cc(C(F)(F)F)c(C(F)(F)F)c(C(F)(F)F)c1 | – | – | – | – | – | solubility ([1]; read-out: Solubility in water): 390 µM (≈ 122 µg/mL)

SMILES | pKa (pKa in water at 25° C.) | Solubility in water [1] [µM] | Extraction rate at 23° C., Cl− [2] [%] | Extraction rate at 23° C., Na+ [2] [%] | Extraction rate at 23° C., mean NaCl [2] [%] | Log K(Na+, MeOH, 25° C.) [3] | Log K(K+, MeOH, 25° C.) [4] | other results
OCc1cc(C(F)(F)C(F)(F)C(F)(F)C(F)(F)F)cc(C(F)(F)C(F)(F)C(F)(F)C(F)(F)F)c1 | 14 | – | – | – | – | – | – | solubility [1]: 0.5 µM (≈ 0.272 µg/mL)
OCc1cccc(C(F)(F)C(F)(F)C(F)(F)C(F)(F)F)c1 [ASM 5, [3-(Perfluorobutyl)phenyl]methanol] | 14.7 | < 77 | – | – | – | – | – | solubility [1]: < 77 µM
OCc1cc(C(F)(F)C(F)(F)C(F)(F)F)cc(C(F)(F)C(F)(F)C(F)(F)F)c1 [ASM 6, [3,5-(Perfluoropropyl)phenyl]methanol] | 14.2 | – | – | – | – | – | – | solubility [1]: < 70 µM
